Results: article PMC7153038, “Pharmacologic inhibition of RGD‐binding integrins ameliorates fibrosis and improves function following kidney injury” (Physiological Reports, 2020)
Where “and” joins values, the source holds several entries; their conditions need not be identical. Identical values can stand only once.

System: kidney gene expression
Test: aristolochic acid kidney injury model, kidney RNA sequencing
Format: in vivo, mouse
Details: for Fold change of Pdgfra by RNA‐seq, AA + CWHM-12: vehicle 5.02; for Fold change of Pdgfrb by RNA‐seq, AA + CWHM-12: vehicle 6.79; for Fold change of Foxd1 by RNA‐seq, AA + CWHM-12: vehicle 9.55; for Fold change of Gli1 by RNA‐seq, AA + CWHM-12: vehicle 20.44; for Fold change of Crlf1 by RNA‐seq, AA + CWHM-12: vehicle 37.57
Description: Alzet osmotic minipumps (Cupertino, CA) were implanted subcutaneously in 8‐ to 10‐week‐old wild‐type male ICR outbred mice (Envigo) one day prior to induction of kidney injury to deliver vehicle (DMSO/H2O 1:1) or CWHM‐12 at a dose of 100 mg/kg per day. A single 5 mg/kg dose of aristolochic acid I sodium salt (Sigma‐Aldrich, A9451) in PBS was administered intraperitoneally to induce kidney injury, and mice were monitored daily for 27 days thereafter. Control (uninjured) mice were injected with an equal volume of PBS. Blood was obtained by maxillary vein puncture on days 0, 5 (peak injury), and 28 (study endpoint). For testing CWHM‐680, oral gavage (100 mg/kg per day) was started one day prior to injection of aristolochic acid I sodium salt and continued once daily until the study endpoint. Blood was obtained at days 0, 7, and 23 (study endpoint). […] Serum creatinine was measured by liquid chromatography–mass spectrometry (LC–MS/MS) at the University of Alabama O’Brien Center Bioanalytical Core. CWHM‐12 and CWHM‐680 concentrations were measured in plasma samples by liquid chromatography–tandem mass spectrometry (LC/MS/MS) using compound spiked into control plasma as a standard. All experiments were performed under protocols approved by the Institutional Animal Care and Use Committee at St. Louis University.
Total RNA was isolated from four kidneys from each of the three study groups using the RNeasy Plus Mini Kit (Qiagen). The groups were as follows: (a) aristolochic acid plus vehicle, (b) aristolochic acid plus CWHM‐12, and (c) PBS plus vehicle. After ribosomal depletion, we constructed barcoded sequencing libraries using the Ion Total RNA‐seq v2 kits (Life Technologies) according to the manufacturer's instructions. Sequencing was performed on an Ion Torrent Proton with mean read lengths of 85–110 nucleotides, and reads were aligned to the mouse mm10 genome using the TMAP aligner map4 algorithm. Soft clipping at both 5′ and 3′ ends of the reads was permitted during alignment to accommodate spliced reads, with a minimum seed length of 20 nucleotides. Genome‐wide strand‐specific nucleotide coverages were calculated from the aligned bam files for each sample using the “genomecoveragebed” program in BEDTools (Quinlan & Hall, 2010), and the nucleotide coverage for all nonredundant exons for each gene was summed using custom R scripts (http://www.Rproject.org). Normalization factors were calculated by averaging the total exon coverage for all replicates and dividing this average by the total exon coverage for each individual sample. The total coverage for each gene in each replicate was then multiplied by these factors after adding an offset of 1 to each gene to preclude division by 0 in subsequent calculations. The averages and p values of the coverage values for all genes in the individual groups were calculated using Microsoft Excel, using a two‐tailed t‐test. The expression values for each gene are the normalized strand‐specific total nucleotide coverage for each gene. The complete data set can be accessed at https://figshare.com/s/54c7f78b4523873e9b00.

[1] = AA-injured, 100 mg/kg/day s.c. minipump
[2] = AA-injured, 100 mg/kg/day s.c. minipump, relative to uninjured, 100 mg/kg/day
[3] = AA-injured, 100 mg/kg/day s.c. minipump, relative to uninjured, listed as CWHM−12, 100 mg/kg/day

CC(C)(C)c1cc(Br)cc([C@H](CC(=O)O)NC(=O)CNC(=O)c2cc(O)cc(NC3=NCC(O)CN3)c2)c1 (stereo partly shown) [CWHM‐12]
Acta2 RNA‐seq ratio AA + CWHM-12/AA + Vehicle [1]: 0.8473
Aldh1a2 RNA‐seq ratio AA + CWHM-12/AA + Vehicle [1]: 0.6492
Col1a1 RNA‐seq ratio AA + CWHM-12/AA + Vehicle [1]: 0.2480
Col3a1 RNA‐seq ratio AA + CWHM-12/AA + Vehicle [1]: 0.3560
Col5a3 RNA‐seq ratio AA + CWHM-12/AA + Vehicle [1]: 0.5587
Crlf1 RNA‐seq ratio AA + CWHM-12/AA + Vehicle [1]: 0.1032
Ctgf RNA‐seq ratio AA + CWHM-12/AA + Vehicle [1]: 0.5510
Egf expression increase in injured animals, RNA-seq [1]: twofold
Fbln2 RNA‐seq ratio AA + CWHM-12/AA + Vehicle [1]: 0.5262
Fn1 RNA‐seq ratio AA + CWHM-12/AA + Vehicle [1]: 0.5243
Foxd1 RNA‐seq ratio AA + CWHM-12/AA + Vehicle [1]: 0.3427
Gda RNA‐seq ratio AA + CWHM-12/AA + Vehicle [1]: 0.6302
Gli1 RNA‐seq ratio AA + CWHM-12/AA + Vehicle [1]: 0.4486
Gli2 RNA‐seq ratio AA + CWHM-12/AA + Vehicle [1]: 0.8986
Gli3 RNA‐seq ratio AA + CWHM-12/AA + Vehicle [1]: 0.6039
Mmp2 RNA‐seq ratio AA + CWHM-12/AA + Vehicle [1]: 0.4013
NGAL (Lcn2) expression decrease vs vehicle-treated injured mice, RNA-seq [1]: 50%
Nes RNA‐seq ratio AA + CWHM-12/AA + Vehicle [1]: 0.4461
Pdgfra RNA‐seq ratio AA + CWHM-12/AA + Vehicle [1]: 0.7298
Pdgfrb RNA‐seq ratio AA + CWHM-12/AA + Vehicle [1]: 0.4393
Rgs16 RNA‐seq ratio AA + CWHM-12/AA + Vehicle [1]: 0.4692
Shroom3 RNA‐seq ratio AA + CWHM-12/AA + Vehicle [1]: 0.5633
Tgfb1 RNA‐seq ratio AA + CWHM-12/AA + Vehicle [1]: 0.5715
Tgfb2 RNA‐seq ratio AA + CWHM-12/AA + Vehicle [1]: 0.8306
Tgfb3 RNA‐seq ratio AA + CWHM-12/AA + Vehicle [1]: 0.5937
Thbs2 RNA‐seq ratio AA + CWHM-12/AA + Vehicle [1]: 0.5603
Thbs4 RNA‐seq ratio AA + CWHM-12/AA + Vehicle [1]: 0.4558
reduction of Myc expression, RNA-seq [1]: 35%
reduction of upregulation of eight keratin genes (Krt 7, 8, 15, 18–20, 23, 80), RNA-seq [1]: 15%–50%
decrease of Sox9 induction, RNA-seq (AA-injured, 100 mg/kg/day s.c. minipump, induction 45-fold with vehicle): 57%
Fold change of Gli2 by RNA‐seq, AA + CWHM-12 (AA-injured, 100 mg/kg/day s.c. minipump, relative to uninjured, vehicle 0.87): 0.78 fold
Fold change of Acta2 by RNA‐seq, AA + CWHM-12 (AA-injured, 100 mg/kg/day s.c. minipump, relative to uninjured, vehicle 3.7): 3.2 fold
Fold change of Shroom3 by RNA‐seq, AA + CWHM-12 (AA-injured, 100 mg/kg/day s.c. minipump, relative to uninjured, vehicle 3.9): 2.2 fold
Fold change of Tgfb2 by RNA‐seq, AA + CWHM-12 (AA-injured, 100 mg/kg/day s.c. minipump, relative to uninjured, vehicle 4.9): 4.1 fold
Fold change of Pdgfra by RNA‐seq, AA + CWHM-12 [2]: 3.7 fold
Fold change of Pdgfra by RNA‐seq, AA + CWHM-12 [3]: 3.66 fold
Fold change of Fbln2 by RNA‐seq, AA + CWHM-12 (AA-injured, 100 mg/kg/day s.c. minipump, relative to uninjured, vehicle 5.78): 3.04 fold
Fold change of Col5a3 by RNA‐seq, AA + CWHM-12 (AA-injured, 100 mg/kg/day s.c. minipump, relative to uninjured, vehicle 5.81): 3.25 fold
Fold change of Ctgf by RNA‐seq, AA + CWHM-12 (AA-injured, 100 mg/kg/day s.c. minipump, relative to uninjured, vehicle 6.4): 3.5 fold
Fold change of Pdgfrb by RNA‐seq, AA + CWHM-12 [2]: 3.0 fold
Fold change of Pdgfrb by RNA‐seq, AA + CWHM-12 [3]: 2.98 fold
Fold change of Tgfb1 by RNA‐seq, AA + CWHM-12 (AA-injured, 100 mg/kg/day s.c. minipump, relative to uninjured, vehicle 7.4): 4.2 fold
Fold change of Thbs2 by RNA‐seq, AA + CWHM-12 (AA-injured, 100 mg/kg/day s.c. minipump, relative to uninjured, vehicle 7.78): 4.36 fold
Fold change of Gda by RNA‐seq, AA + CWHM-12 (AA-injured, 100 mg/kg/day s.c. minipump, relative to uninjured, vehicle 8.17): 5.15 fold
Fold change of Tgfb3 by RNA‐seq, AA + CWHM-12 (AA-injured, 100 mg/kg/day s.c. minipump, relative to uninjured, vehicle 8.3): 4.9 fold
Fold change of Thbs4 by RNA‐seq, AA + CWHM-12 (AA-injured, 100 mg/kg/day s.c. minipump, relative to uninjured, vehicle 8.72): 3.97 fold
Fold change of Nes by RNA‐seq, AA + CWHM-12 (AA-injured, 100 mg/kg/day s.c. minipump, relative to uninjured, vehicle 8.77): 3.91 fold
Fold change of Foxd1 by RNA‐seq, AA + CWHM-12 [2]: 3.3 fold
Fold change of Foxd1 by RNA‐seq, AA + CWHM-12 [3]: 3.27 fold
Fold change of Fn1 by RNA‐seq, AA + CWHM-12 (AA-injured, 100 mg/kg/day s.c. minipump, relative to uninjured, vehicle 12.6): 6.6 fold
Fold change of Gli1 by RNA‐seq, AA + CWHM-12 [2]: 9.2 fold
Fold change of Gli1 by RNA‐seq, AA + CWHM-12 [3]: 9.17 fold
Fold change of Mmp2 by RNA‐seq, AA + CWHM-12 (AA-injured, 100 mg/kg/day s.c. minipump, relative to uninjured, vehicle 24.6): 9.9 fold
Fold change of Gli3 by RNA‐seq, AA + CWHM-12 (AA-injured, 100 mg/kg/day s.c. minipump, relative to uninjured, vehicle 24.87): 15.02 fold
Fold change of Col3a1 by RNA‐seq, AA + CWHM-12 (AA-injured, 100 mg/kg/day s.c. minipump, relative to uninjured, vehicle 28.0): 10.0 fold
Fold change of Aldh1a2 by RNA‐seq, AA + CWHM-12 (AA-injured, 100 mg/kg/day s.c. minipump, relative to uninjured, vehicle 32.44): 21.06 fold
Fold change of Crlf1 by RNA‐seq, AA + CWHM-12 [2]: 3.9 fold
Fold change of Crlf1 by RNA‐seq, AA + CWHM-12 [3]: 3.88 fold
Fold change of Col1a1 by RNA‐seq, AA + CWHM-12 (AA-injured, 100 mg/kg/day s.c. minipump, relative to uninjured, vehicle 42.1): 10.4 fold
Fold change of Rgs16 by RNA‐seq, AA + CWHM-12 (AA-injured, 100 mg/kg/day s.c. minipump, relative to uninjured, vehicle 55.80): 26.19 fold
Cdk1 expression level, fold higher, RNA-seq (AA-injured, 100 mg/kg/day s.c. minipump, vehicle 12-fold): 1.9 fold
Ccnb1 expression level, fold higher, RNA-seq (AA-injured, 100 mg/kg/day s.c. minipump, vehicle 23-fold): 1.4 fold
0610005C13Rik RNA-seq normalized coverage, AA CWHM12.AVE (AA-injured, group average): 114105
0610007N19Rik RNA-seq normalized coverage, AA CWHM12.AVE (AA-injured, group average): 54308
0610007P14Rik RNA-seq normalized coverage, AA CWHM12.AVE (AA-injured, group average): 56128
0610008F07Rik RNA-seq normalized coverage, AA CWHM12.AVE (AA-injured, group average): 5309
0610009B14Rik RNA-seq normalized coverage, AA CWHM12.AVE (AA-injured, group average): 1314
0610005C13Rik RNA-seq normalized coverage, AA CWHM12 individual replicates (AA-injured, replicates 1-3): 95741 and 94900 and 151673
0610007N19Rik RNA-seq normalized coverage, AA CWHM12 individual replicates (AA-injured, replicates 1-3): 42985 and 46254 and 73685
0610007P14Rik RNA-seq normalized coverage, AA CWHM12 individual replicates (AA-injured, replicates 1-3): 42349 and 51087 and 74947
0610008F07Rik RNA-seq normalized coverage, AA CWHM12 individual replicates (AA-injured, replicates 1-3): 4229 and 2946 and 8751
0610009B14Rik RNA-seq normalized coverage, AA CWHM12 individual replicates (AA-injured, replicates 1-3): 1407 and 899 and 1635
0610005C13Rik AA CWHM12/AA Vehicle.RATIO (RNA-seq): 2.041
0610005C13Rik AA CWHM12/PBS Vehicle.RATIO (RNA-seq): 0.462
0610007N19Rik AA CWHM12/AA Vehicle.RATIO (RNA-seq): 1.380
0610007N19Rik AA CWHM12/PBS Vehicle.RATIO (RNA-seq): 1.337
0610007P14Rik AA CWHM12/AA Vehicle.RATIO (RNA-seq): 1.629
0610007P14Rik AA CWHM12/PBS Vehicle.RATIO (RNA-seq): 1.142
0610008F07Rik AA CWHM12/AA Vehicle.RATIO (RNA-seq): 4.723
0610008F07Rik AA CWHM12/PBS Vehicle.RATIO (RNA-seq): 0.373
0610009B14Rik AA CWHM12/AA Vehicle.RATIO (RNA-seq): 1.572
0610009B14Rik AA CWHM12/PBS Vehicle.RATIO (RNA-seq): 1.915
